Experimental data published in ChEMBL document CHEMBL5214923, “Contemporary mTOR inhibitor scaffolds to diseases breakdown: A patent review (2015-2021)” (Eur J Med Chem, 2022).

Experiments:
mTORC1 [1] = target: T1, mTORC1 (Homo sapiens, UniProt P42345+Q8N122+Q9BVC4); assay: Inhibition of mTORC1 (unknown origin); assay type: protein-complex assay
mTORC2 [2] = target: T2, mTORC2 (Homo sapiens, UniProt P42345+Q6R327+Q9BPZ7+Q9BVC4); assay: Inhibition of mTORC2 (unknown origin); assay type: protein-complex assay
mTORC1 [3] = target: T1, mTORC1; assay: Inhibition of mTORC1 in human MCF7 cells assessed as measuring phosphorylated S6K1 incubated for 2 hrs by AlphaLISA assay; assay type: cell-based
mTORC2 [4] = target: T2, mTORC2; assay: Inhibition of mTORC2 in human MCF7 cells assessed as measuring phosphorylated AKT incubated for 2 hrs by AlphaLISA assay; assay type: cell-based
[5] = Inhibition of mTORC1 in mouse MEF TSC1-/- cells assessed as measuring phosphorylated S6 level incubated for 2 hrs by Hoechst staining based fluorescence assay; assay type: cell-based

T2 sequence (Q6R327 whole entry, other chains not shown): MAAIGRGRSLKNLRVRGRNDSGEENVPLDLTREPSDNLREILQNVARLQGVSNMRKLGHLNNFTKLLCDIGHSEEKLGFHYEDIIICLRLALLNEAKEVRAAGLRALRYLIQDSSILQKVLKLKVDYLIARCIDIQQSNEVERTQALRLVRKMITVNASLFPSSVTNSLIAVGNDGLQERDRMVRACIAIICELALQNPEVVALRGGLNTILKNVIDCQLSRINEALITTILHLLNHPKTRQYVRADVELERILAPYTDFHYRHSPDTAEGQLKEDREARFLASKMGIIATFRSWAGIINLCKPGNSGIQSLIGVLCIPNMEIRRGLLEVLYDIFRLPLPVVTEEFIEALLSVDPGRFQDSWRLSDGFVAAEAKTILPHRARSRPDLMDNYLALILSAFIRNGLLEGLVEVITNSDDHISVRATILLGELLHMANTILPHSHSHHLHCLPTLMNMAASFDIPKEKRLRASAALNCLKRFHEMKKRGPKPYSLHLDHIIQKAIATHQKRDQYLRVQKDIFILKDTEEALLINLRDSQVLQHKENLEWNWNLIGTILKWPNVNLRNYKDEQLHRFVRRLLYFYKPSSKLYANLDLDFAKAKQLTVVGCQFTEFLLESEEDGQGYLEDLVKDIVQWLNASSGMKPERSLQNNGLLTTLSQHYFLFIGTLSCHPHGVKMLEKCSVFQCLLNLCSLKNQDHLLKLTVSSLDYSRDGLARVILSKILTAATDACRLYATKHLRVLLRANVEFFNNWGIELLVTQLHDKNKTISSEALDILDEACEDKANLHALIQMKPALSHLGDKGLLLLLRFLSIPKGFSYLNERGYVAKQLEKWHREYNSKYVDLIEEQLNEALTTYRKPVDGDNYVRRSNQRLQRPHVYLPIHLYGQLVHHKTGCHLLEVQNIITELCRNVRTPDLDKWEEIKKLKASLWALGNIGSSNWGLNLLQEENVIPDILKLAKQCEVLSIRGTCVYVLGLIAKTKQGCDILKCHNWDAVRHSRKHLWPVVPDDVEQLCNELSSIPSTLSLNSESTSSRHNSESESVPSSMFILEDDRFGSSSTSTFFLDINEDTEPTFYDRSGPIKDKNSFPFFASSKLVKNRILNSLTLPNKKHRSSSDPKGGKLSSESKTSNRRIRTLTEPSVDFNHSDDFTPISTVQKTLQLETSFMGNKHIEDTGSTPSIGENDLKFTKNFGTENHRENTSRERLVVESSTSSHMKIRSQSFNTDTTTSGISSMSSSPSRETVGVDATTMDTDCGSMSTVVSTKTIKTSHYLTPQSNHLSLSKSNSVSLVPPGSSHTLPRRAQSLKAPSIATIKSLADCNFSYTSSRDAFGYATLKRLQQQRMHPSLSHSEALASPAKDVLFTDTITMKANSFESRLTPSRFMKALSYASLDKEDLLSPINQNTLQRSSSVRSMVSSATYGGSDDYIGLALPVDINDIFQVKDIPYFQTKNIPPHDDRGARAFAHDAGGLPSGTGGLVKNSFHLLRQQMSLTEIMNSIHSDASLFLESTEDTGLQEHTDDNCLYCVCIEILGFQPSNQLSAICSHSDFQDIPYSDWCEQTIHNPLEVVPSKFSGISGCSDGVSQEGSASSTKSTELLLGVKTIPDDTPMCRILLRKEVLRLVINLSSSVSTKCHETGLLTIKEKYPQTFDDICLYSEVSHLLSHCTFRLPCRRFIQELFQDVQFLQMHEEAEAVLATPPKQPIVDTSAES
T2 sequence (Q9BPZ7 2-522 limits assumed, other chains not shown): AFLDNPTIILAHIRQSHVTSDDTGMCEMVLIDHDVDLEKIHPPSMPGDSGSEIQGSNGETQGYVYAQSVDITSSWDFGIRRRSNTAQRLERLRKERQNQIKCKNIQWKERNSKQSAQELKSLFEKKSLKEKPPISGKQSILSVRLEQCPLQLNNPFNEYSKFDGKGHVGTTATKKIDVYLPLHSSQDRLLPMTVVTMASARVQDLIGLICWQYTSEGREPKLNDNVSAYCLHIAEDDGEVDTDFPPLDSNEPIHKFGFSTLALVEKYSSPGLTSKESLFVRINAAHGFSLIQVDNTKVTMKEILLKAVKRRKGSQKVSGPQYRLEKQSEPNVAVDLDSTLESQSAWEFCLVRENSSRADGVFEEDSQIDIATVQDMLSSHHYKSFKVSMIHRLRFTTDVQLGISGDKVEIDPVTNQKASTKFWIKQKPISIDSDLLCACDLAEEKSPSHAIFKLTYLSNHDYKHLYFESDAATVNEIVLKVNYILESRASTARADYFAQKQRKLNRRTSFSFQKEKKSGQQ
T2 sequence (Q9BVC4 whole entry, other chains not shown): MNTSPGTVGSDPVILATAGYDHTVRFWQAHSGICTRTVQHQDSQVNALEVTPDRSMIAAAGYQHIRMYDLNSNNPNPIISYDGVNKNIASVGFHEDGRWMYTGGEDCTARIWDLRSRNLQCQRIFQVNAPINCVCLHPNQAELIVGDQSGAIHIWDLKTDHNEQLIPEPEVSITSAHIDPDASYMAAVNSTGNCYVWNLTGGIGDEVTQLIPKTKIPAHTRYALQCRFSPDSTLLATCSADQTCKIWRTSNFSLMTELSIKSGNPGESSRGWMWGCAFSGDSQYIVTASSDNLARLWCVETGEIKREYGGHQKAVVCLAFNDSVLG

Row | SMILES | IC50 (mTORC1 [1]) | IC50 (mTORC2 [2]) | IC50 (mTORC1 [3]) | IC50 (mTORC2 [4]) | other results
1 | CC1(C)COCCN1c1nc(-c2cnc(N)cc2C(F)F)nc(N2CCOCC2(C)C)n1 | 47 nM | 106 nM |  |  | 
2 | CO[C@@H]1C[C@H](C[C@@H](C)[C@@H]2CC(=O)[C@H](C)/C=C(\C)[C@@H](O)[C@@H](OC)C(=O)[C@H](C)C[C@H](C)/C=C/C=C/C=C(\C)[C@@H](OCCOCCO)C[C@@H]3CC[C@@H](C)[C@@](O)(O3)C(=O)C(=O)N3CCCC[C@H]3C(=O)O2)CC[C@H]1O | < 0.1 nM | ≥ 100 nM |  |  | 
3 | Nc1ncc(-c2nc(N3CCOCC3)nc3c2C[C@@H]2COCCN32)cn1 | 574 nM | 575 nM |  |  | 
4 | Nc1ncc(-c2nc(N3CCOCC3)c3c(n2)N2CCOC[C@@H]2C3)cn1 | 98 nM | 154 nM |  |  | 
5 | C[C@H]1COCCN1c1nc(-c2cnc(N)cc2C(F)F)nc(N2CCOCC2)n1 | 68 nM | 74 nM |  |  | 
6 | Nc1ncc(-c2nc(N3CCOCC3)c3c(n2)N2CCOC[C@H]2C3)cn1 | 65 nM | 145 nM |  |  | 
7 | C[C@H]1COCCN1c1nc(-c2cnc(N)nc2C(F)F)nc(N2CCOCC2)n1 | 72 nM | 35 nM |  |  | 
8 | CO[C@H]1C[C@@H]2CC[C@@H](C)[C@@](O)(O2)C(=O)C(=O)N2CCCC[C@H]2C(=O)O[C@H]([C@H](C)C[C@@H]2CC[C@@H](OCCO)[C@H](OC)C2)CC(=O)[C@H](C)/C=C(\C)[C@@H](O)[C@@H](OC)C(=O)[C@H](C)C[C@H](C)/C=C/C=C/C=C/1C [EVEROLIMUS] | 0.05 nM |  |  |  | 
9 | CO[C@@H]1C[C@H](C[C@@H](C)[C@@H]2CC(=O)[C@H](C)/C=C(\C)[C@@H](O)[C@@H](OC)C(=O)[C@H](C)C[C@H](C)/C=C/C=C/C=C(\C)[C@@H](OCCOCCOCCO)C[C@@H]3CC[C@@H](C)[C@@](O)(O3)C(=O)C(=O)N3CCCC[C@H]3C(=O)O2)CC[C@H]1O | < 0.1 nM | ≥ 100 nM |  |  | 
10 | CO[C@@H]1C[C@H](C[C@@H](C)[C@@H]2CC(=O)[C@H](C)/C=C(\C)[C@@H](O)[C@@H](OC)C(=O)[C@H](C)C[C@H](C)/C=C/C=C/C=C(\C)C(N3CCS3(=O)=O)C[C@@H]3CC[C@@H](C)[C@@](O)(O3)C(=O)C(=O)N3CCCC[C@H]3C(=O)O2)CC[C@@H]1n1cnnn1 (some centres not stated) |  |  |  |  | IC50 ([5]; Mus musculus, MEF, 2 h): 0.374 nM
11 | CO[C@@H]1C[C@H](C[C@@H](C)[C@@H]2CC(=O)[C@H](C)/C=C(\C)[C@@H](O)[C@@H](OC)C(=O)[C@H](C)C[C@H](C)/C=C/C=C/C=C(\C)[C@@H](OCCOCCOCCOCCOCCOCCOCCOCCO)C[C@@H]3CC[C@@H](C)[C@@](O)(O3)C(=O)C(=O)N3CCCC[C@H]3C(=O)O2)CC[C@H]1O | < 0.1 nM | ≥ 100 nM |  |  | 
12 | Nc1ncc(-c2nc(N3CCOCC3)nc3c2C[C@H]2COCCN32)cn1 | 594 nM | 1260 nM |  |  | 
13 | CO[C@@H]1C[C@H](C[C@@H](C)[C@@H]2CC(=O)[C@H](C)/C=C(\C)[C@@H](O)[C@@H](OC)C(=O)[C@H](C)C[C@H](C)/C=C/C=C/C=C(\C)C(N3CCCS3(=O)=O)C[C@@H]3CC[C@@H](C)[C@@](O)(O3)C(=O)C(=O)N3CCCC[C@H]3C(=O)O2)CC[C@H]1OCCO (stereo in doubt; 13) |  |  |  |  | IC50 ([5]; mef): 8.3 nM
14 | Nc1ncc(-c2nc(N3C4CCC3COC4)nc(N3C4COCC3COC4)n2)c(C(F)F)n1 | 79 nM | 219 nM |  |  | 
15 | CO[C@@H]1C[C@H](C[C@@H](C)[C@@H]2CC(=O)[C@H](C)/C=C(\C)[C@@H](O)[C@@H](OC)C(=O)[C@H](C)C[C@H](C)/C=C/C=C/C=C(\C)[C@H](N3CCCS3(=O)=O)C[C@@H]3CC[C@@H](C)[C@@](O)(O3)C(=O)C(=O)N3CCCC[C@H]3C(=O)O2)CC[C@H]1O |  |  |  |  | IC50 ([5]; Mus musculus, MEF, 2 h): 0.274 nM
16 | CO[C@@H]1C[C@H](C[C@@H](C)[C@@H]2CC(=O)[C@H](C)/C=C(\C)[C@@H](O)[C@@H](OC)C(=O)[C@H](C)C[C@H](C)/C=C/C=C/C=C(\C)[C@@H](OCCSCCSCCO)C[C@@H]3CC[C@@H](C)[C@@](O)(O3)C(=O)C(=O)N3CCCC[C@H]3C(=O)O2)CC[C@H]1O | < 0.1 nM | ≥ 100 nM |  |  | 
17 | CO[C@@H]1C[C@H](C[C@@H](C)[C@@H]2CC(=O)[C@H](C)/C=C(\C)[C@@H](O)[C@@H](OC)C(=O)[C@H](C)C[C@H](C)/C=C/C=C/C=C(\C)C(N3CCS3(=O)=O)C[C@@H]3CC[C@@H](C)[C@@](O)(O3)C(=O)C(=O)N3CCCC[C@H]3C(=O)O2)CC[C@H]1OCCO (some centres not stated) |  |  |  |  | IC50 ([5]; Mus musculus, MEF, 2 h): 0.328 nM
18 | CO[C@@H]1C[C@H](C[C@@H](C)[C@@H]2CC(=O)[C@H](C)/C=C(\C)[C@@H](O)[C@@H](OC)C(=O)[C@H](C)C[C@H](C)/C=C/C=C/C=C(\C)C(N3CCCCS3(=O)=O)C[C@@H]3CC[C@@H](C)[C@@](O)(O3)C(=O)C(=O)N3CCCC[C@H]3C(=O)O2)CC[C@H]1O (some centres not stated) |  |  |  |  | IC50 ([5]; Mus musculus, MEF, 2 h): 3.4 nM
19 | CO[C@@H]1C[C@H](C[C@@H](C)[C@@H]2CC(=O)[C@H](C)/C=C(\C)[C@@H](O)[C@@H](OC)C(=O)[C@H](C)C[C@H](C)/C=C/C=C/C=C(\C)C(N3CCS3(=O)=O)C[C@@H]3CC[C@@H](C)[C@@](O)(O3)C(=O)C(=O)N3CCCC[C@H]3C(=O)O2)CC[C@H]1O (some centres not stated) |  |  |  |  | IC50 ([5]; Mus musculus, MEF, 2 h): 0.17 nM
20 | CO[C@@H]1C[C@H](C[C@@H](C)[C@@H]2CC(=O)[C@H](C)/C=C(\C)[C@@H](O)[C@@H](OC)C(=O)[C@H](C)C[C@H](C)/C=C/C=C/C=C(\C)C(N3CCCS3(=O)=O)C[C@@H]3CC[C@@H](C)[C@@](O)(O3)C(=O)C(=O)N3CCCC[C@H]3C(=O)O2)CC[C@H]1O (some centres not stated) |  |  |  |  | IC50 ([5]; Mus musculus, MEF, 2 h): 1.36 nM
21 | CC1(C)COCCN1c1nc(-c2cnc(N)cc2C(F)F)nc(N2CCOCC2)n1 | 45 nM | 54 nM |  |  | 
22 | CO[C@@H]1C[C@H](C[C@@H](C)[C@@H]2CC(=O)[C@H](C)/C=C(\C)[C@@H](O)[C@@H](OC)C(=O)[C@H](C)C[C@H](C)/C=C/C=C/C=C(\C)[C@@H](OCC3COCCOCCOCCO3)C[C@@H]3CC[C@@H](C)[C@@](O)(O3)C(=O)C(=O)N3CCCC[C@H]3C(=O)O2)CC[C@H]1O (some centres not stated) | < 0.1 nM | ≥ 100 nM |  |  | 
23 | CO[C@@H]1C[C@H](C[C@@H](C)[C@@H]2CC(=O)[C@H](C)/C=C(\C)[C@@H](O)[C@@H](OC)C(=O)[C@H](C)C[C@H](C)/C=C/C=C/C=C(\C)C(N3CCCS3(=O)=O)C[C@@H]3CC[C@@H](C)[C@@](O)(O3)C(=O)C(=O)N3CCCC[C@H]3C(=O)O2)CC[C@H]1OCCO (stereo in doubt; 12) |  |  |  |  | IC50 ([5]; mef): 22.5 nM

More lines, main results first:

Row | IC50 (mTORC1 [1]) | IC50 (mTORC2 [2]) | IC50 (mTORC1 [3]) | IC50 (mTORC2 [4]) | SMILES | other results
24 |  |  | 10 nM | > 10000 nM | Cc1cc(C)c(C(=O)N2CCN(c3ncccc3S(N)(=O)=O)CC2)nc1NC1CCN(c2ccccc2C#N)CC1 | 
25 |  |  | 10 nM | > 10000 nM | Cc1c(CN2C3CCC2CN(c2ccccc2C#N)C3)cc(C(=O)N2CCN(c3ccccn3)CC2)n1C | 
26 |  |  | 10 nM | > 10000 nM | Cc1cc(C)c(C(=O)N2CCN(c3cncc4cn[nH]c34)CC2)nc1NC1CCN(c2ccccc2C#N)CC1 | 
27 |  |  | 10 nM | > 10000 nM | CNC(=O)c1cc(F)ccc1N1CCN(C(=O)c2cc(NC3CCN(c4ccccc4C#N)CC3)c(C)cc2C)CC1 | 
28 |  |  | 10 nM | > 10000 nM | Cc1cc(C)c(C(=O)N2CCN(c3cccc(F)c3[S@](C)(=N)=O)CC2)cc1NC1CCN(c2ccccc2C#N)CC1 | 
29 |  |  | 10 nM | > 10000 nM | Cn1c(C(=O)N2CCN(c3ccccc3)CC2)cc(CN2CCN(c3ccccc3C#N)CC2)c1C#N | 
30 |  |  | 10 nM | > 10000 nM | Cc1cc(C)c(C(=O)N2CCN(c3ncccc3F)[C@H](CO)C2)cc1NC1CCN(c2ccccc2C#N)CC1 | 
31 |  |  | 10 nM | > 10000 nM | Cc1cc(C)c(C(=O)N2CCN(c3ccc(F)cn3)[C@H](CO)C2)c(C)c1NC1CCN(c2cccnn2)CC1 | 
32 |  |  | 10 nM | > 10000 nM | Cc1c(CN2CCN(c3ccccc3C#N)CC2)cc(C(=O)N2CCN(c3oc(C4CC4)nc3C#N)CC2)n1C | 
33 |  |  | 10 nM | > 10000 nM | Cc1cc(C)c(C(=O)N2CCN(c3cccnc3S(N)(=O)=O)CC2)c(C)c1NC1CCN(c2ccccc2C#N)CC1 | 
34 |  |  | 10 nM | > 10000 nM | Cc1c(CN2CCN(c3ccccc3Cl)CC2)cc(C(=O)N2CCN(c3cccc(F)c3C#N)C[C@@H]2C)n1C | 
35 |  |  | 10 nM | > 10000 nM | Cc1cc(C)c(C(=O)N2CCN(c3ccccc3)C(C(N)=O)C2)c(C)c1NC1CCN(c2ccc(F)cc2C#N)CC1 (configuration not stated) | 
36 |  |  | 10 nM | > 10000 nM | Cn1c(C(=O)N2CCN(c3ccccc3)CC2)cc(CN2CCN(c3ccccc3Cl)CC2)c1C#N | 
37 |  |  | 10 nM | > 10000 nM | Cc1cc(C)c(C(=O)N2CCN(c3ccccn3)[C@H](CO)C2)cc1NC1CCN(c2ccccc2OC(F)F)CC1 | 
38 |  |  | 10 nM | > 10000 nM | Cc1c(CN2CCN(c3ncccc3Cl)CC2)cc(C(=O)N2CCN(c3cc(F)c(F)cc3C#N)CC2)n1C | 
